Measurements reported in article PMC13059705, “Peptidoglycan DD-peptidases have distinct activities that impact fitness of Acinetobacter baumannii” (mBio, 2026).

Assays:
PBP6b = biological target: T1, PBP6b (Acinetobacter baumannii, UniProt A0ABX6CI93); experiment: bocillin-binding assay with SDS-PAGE; conditions: covalent; labelled compound; used to confirm identity of the purified protein
T1 construct: gene dacD; Triton X-100 extraction, Ni-NTA
T1 sequence (A0ABX6CI93 22-439): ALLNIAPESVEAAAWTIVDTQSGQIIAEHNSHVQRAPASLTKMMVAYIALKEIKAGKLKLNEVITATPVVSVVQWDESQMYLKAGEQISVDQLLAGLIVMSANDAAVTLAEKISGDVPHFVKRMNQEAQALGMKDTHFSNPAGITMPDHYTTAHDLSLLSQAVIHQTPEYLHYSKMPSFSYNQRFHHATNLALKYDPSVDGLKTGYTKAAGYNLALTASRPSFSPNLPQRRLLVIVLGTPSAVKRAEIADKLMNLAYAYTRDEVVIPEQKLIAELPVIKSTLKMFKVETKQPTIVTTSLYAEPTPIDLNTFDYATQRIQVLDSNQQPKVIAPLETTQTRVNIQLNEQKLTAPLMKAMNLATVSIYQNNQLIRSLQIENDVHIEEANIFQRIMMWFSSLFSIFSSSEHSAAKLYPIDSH

PBP5/6a = biological target: T2, PBP5/6a (Acinetobacter baumannii, UniProt G1C735); experiment: bocillin-binding assay with SDS-PAGE; conditions: covalent; labelled compound; used to confirm identity of the purified protein
T2 construct: gene dacC; Triton X-100 extraction, Ni-NTA
T2 sequence (G1C735 20-382): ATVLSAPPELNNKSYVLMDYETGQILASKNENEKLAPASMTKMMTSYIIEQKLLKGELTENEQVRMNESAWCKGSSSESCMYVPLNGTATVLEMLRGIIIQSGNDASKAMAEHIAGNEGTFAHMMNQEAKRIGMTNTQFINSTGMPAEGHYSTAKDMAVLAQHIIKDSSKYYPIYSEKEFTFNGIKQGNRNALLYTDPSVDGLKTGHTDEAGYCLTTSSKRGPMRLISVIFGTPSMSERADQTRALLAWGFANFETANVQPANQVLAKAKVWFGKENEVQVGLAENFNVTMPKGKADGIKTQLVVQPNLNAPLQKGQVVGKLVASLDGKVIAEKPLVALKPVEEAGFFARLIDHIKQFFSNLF

Question: `Cc1cc(C)n2c1C=C1C=CC(CCC(=O)Nc3ccc(OCC(=O)N[C@@H]4C(=O)N5[C@@H]4SC(C)(C)[C@@H]5C(=O)O)cc3)=[N+]1[B-]2(F)F` [bocillin] was tested. Which “bocillin-binding assay with SDS-PAGE” value (PBP6b) did it give?
Answer: Protein purity and identity were confirmed by SDS-PAGE and bocillin-binding assays

Question: And the “bocillin-binding assay with SDS-PAGE” value (PBP5/6a)?
Answer: Protein purity and identity were confirmed by SDS-PAGE and bocillin-binding assays
